Earlier results on one compound are cited in publication PMC11949389 (Polish Journal of Microbiology, 2025).

Molecules are shown by their SMILES. ≈ marks a conversion by molar mass, not a printed value. Where two headings read alike, the source gives them in different places.

For data set [1], the system named is Vancomycin-sensitive Enterococcus (VSE).
Data set [2] concerns Campylobacter jejuni.
The next data set has as its system Candida albicans. The note with it: Candida albicans; ref Sharifzadeh et al. 2019; Iraji et al. 2020; Shaban et al. 2020; Stringaro et al. 2022; Biernasiuk et al. 2022.
Data set [3] concerns carbapenem and polymyxin-resistant Klebsiella pneumoniae. To be noted: murine models, compared to polymyxin B treatment; ref de Souza et al. (2021).
The subject of data set [4] is Vibrio anguillarum, and Vibrio harveyi. The note with it: ref Rossi et al. (2021).
In data set [5] the test system is Ciprofloxacin-resistant Pseudomonas aeruginosa. The note with it: Ciprofloxacin-resistant Pseudomonas aeruginosa; ref Owen et al. 2019.
The next data set deals with Candida species. To be noted: ref Stringaro et al. (2022).
The subject of another data set is staphylococcal isolates. To be noted: ref Sim et al. 2019.
The test system of data set [6] is Campylobacter jejuni. To be noted: C. jejuni; ref Šimunović et al. (2020).
For data set [7], the system named is amphotericin B-resistant C. albicans. To be noted: varying among Candida isolates; ref Touil et al. (2020).

Turning to `Cc1ccc(C(C)C)cc1O` [Carvacrol], the MIC/Sensitivity was 0.59337 mg/mL (≈ 3.95 mM) in [1] (Vancomycin-sensitive Enterococcus (VSE), ref Owen et al. 2019); 0.03125 mg/mL (≈ 0.208 mM) in the data set with Campylobacter jejuni [2] (Campylobacter jejuni, ref Šimunović et al. 2020); 0.04375 to 0.25 mg/mL in the data set on Candida albicans; 4749.9564 mg/mL (≈ 31600 mM) in data set [5]. Further, the “reduction in vancomycin’s MIC” value in data set [1] (binary combinations with vancomycin, VSE, ref Owen et al. (2020)) is “four to eight-fold reduction”. Further, the MIC (in general, the smallest concentration in the dilution series that meets the test's criterion for growth inhibition) was 0.03125 mg/mL (≈ 0.208 mM) in the data set with Campylobacter jejuni [2] (ref Šimunović et al. (2020)), 940 to 7500 µM in [4], 0.0975 to 0.195 mg/mL in the data set on Candida species and 250–1,000 μg/ml in [7]. Further, the “bacterial counts in infections” value in data set [3] is reported as “reduced bacterial counts”. For the same compound, the survival entry in data set [3] is “significantly improved survival”. Besides, in the data set on staphylococcal isolates, the MIC90 (in general, an inhibitory concentration at the 90% level, which refers to growth in some studies and to a panel of isolates in others) is 0.146 to 0.2 mg/mL. Moreover, the efflux pump inhibition entry in the data set on Campylobacter jejuni [6] is given as “weaker effect”. In addition, the Mechanisms of action entry with Candida auris (ref Ismail et al. 2022) is “• Induced oxidative stress • Increased CAT, SOD and GPx enzyme activity • Decreased GR and GST enzyme activity • Caused membrane disintegration”; in the data set on Candida auris (ref Shaban et al. 2020) it was “• Reduced proteinase production and host cell adherence”.
